Experimental data taken from publication PMC12888920, “MMP-9 regulates disulphide isomerase activity of TGM2 to enhance fusion glycoprotein-mediated syncytium formation of respiratory syncytial virus” (Protein & Cell, 2025).

Columns and labels:
[1] = tested on: HEp-2 cells; assay: Cell viability assay (CellTiter-Glo) in HEp-2 cells; assay type: cell-based
Procedure: (§1) Figure 7. MMP-9-mediated TGM2 cleavage potentiates RSV–host interaction. (A) Cytotoxicity profiling. Dose-response curves of TGM2 inhibitors (ZED-1227, Cystamine, Bacitracin, E64FC26, ML359) in HEp-2 cells (72 h treatment). Viability was assessed by CellTiter-Glo assay. Data normalized to untreated controls. mean ± SD, n = 3. (B) Antiviral efficacy. Viral inhibition (FFA) in RSV A2-infected HEp-2 cells treated with TGM2 inhibitors at threefold dilution gradients: ZED-1227 (60–10 µmol/L), Cystamine (200–22.2 µmol/L), Bacitracin (500–50 µmol/L), E64FC26 (0.2–0.05 µmol/L), and ML359 (10–1.1 µmol/L). DMSO as vehicle control. mean ± SD, n = 3. (C) TGM2–F protein interaction. Co-IP analysis in HEK293T cells co-expressing TGM2 and RSV F (48 h). Immunoblots were probed with anti-TGM2, anti-F, or IgG control. Blots represent three independent experiments. (D) Binding kinetics. BLI quantification of TGM2–DS-Cav1 (RSV F prefusion conformation) interaction. The results represent three biological replicates. (E) Ternary complex formation. Co-IP of MMP-9-TGM2-F complex in HEK293T cells (48 h). GAPDH as loading control. Below the asterisk represents the objective band. Blots represent three independent experiments. (F) Impairing MMP-9/TGM2/RSV-F complex inhibits RSV infection. […] (G) Proteolytic enhancement. MMP-9-cleaved TGM2 (TGM2-44) enhances protein disulfide isomerase (PDI) activity was measured using reduced DS-Cav1. mean ± SD, n = 3. (H) Truncation functional analysis. Viral titers (FFA) in HEp-2 cells expressing MMP-9, TGM2, or cleavage fragments (TGM2-44/41) post RSV infection (MOI = 1, 72 hpi). mean ± SD, n = 3. (I) Syncytium rescue. Syncytia area quantification in TGM2 truncation-expressing cells (ImageJ software). mean ± SD, n = 3. (J) Subcellular redistribution. Confocal microscopy of HEp-2 cells co-expressing TGM2 truncations (HA/FLAG-tagged) and RSV F (72 hpi). Scale bar: 10 µm. Images represent three biological replicates. (K) F protein expression. Fluorescence intensity quantification of RSV F in (J) (ImageJ software). mean ± SD, n = 3. (L) Fusion competence assay. Syncytium formation in HEK293T cells co-expressing TGM2 truncations and RSV F/F-C37S/C69S mutants (48 h). Scale bar: 10 µm. Images represent three biological replicates. (M) Mutant validation. RSV F expression levels in (L) were quantified by ImageJ software. mean ± SD, n = 3. The results are representatively shown with three random experiments. The error bars indicate the mean ± SD of three technical replicates (n = 3). […]
(§2) (B-C) Cytotoxicity profiles in HEp-2 (B) and HBEC (C) cells. […] Viability was assessed using the CellTiter-Glo assay (G7570, Promega). […]
(§3) 95 Cell viability was evaluated using a CellTiter -Glo® Luminescent Cell Viability Assay 96 kit (G7571, Promega) according to the manufacturer’s instructions. […]

[2] = tested on: RSV A2; assay: Viral inhibition (FFA) in RSV A2-infected HEp-2 cells treated with TGM2 inhibitors; assay type: cell-based, Respiratory syncytial virus; settings: HEp-2, RSV A2; ZED-1227 60–10, Cystamine 200–22.2, Bacitracin 500–50, E64FC26 0.2–0.05, ML359 10–1.1 µmol/L
Procedure: Figure 7. MMP-9-mediated TGM2 cleavage potentiates RSV–host interaction. (A) Cytotoxicity profiling. Dose-response curves of TGM2 inhibitors (ZED-1227, Cystamine, Bacitracin, E64FC26, ML359) in HEp-2 cells (72 h treatment). Viability was assessed by CellTiter-Glo assay. Data normalized to untreated controls. mean ± SD, n = 3. (B) Antiviral efficacy. Viral inhibition (FFA) in RSV A2-infected HEp-2 cells treated with TGM2 inhibitors at threefold dilution gradients: ZED-1227 (60–10 µmol/L), Cystamine (200–22.2 µmol/L), Bacitracin (500–50 µmol/L), E64FC26 (0.2–0.05 µmol/L), and ML359 (10–1.1 µmol/L). DMSO as vehicle control. mean ± SD, n = 3. (C) TGM2–F protein interaction. Co-IP analysis in HEK293T cells co-expressing TGM2 and RSV F (48 h). Immunoblots were probed with anti-TGM2, anti-F, or IgG control. Blots represent three independent experiments. (D) Binding kinetics. BLI quantification of TGM2–DS-Cav1 (RSV F prefusion conformation) interaction. The results represent three biological replicates. (E) Ternary complex formation. Co-IP of MMP-9-TGM2-F complex in HEK293T cells (48 h). GAPDH as loading control. Below the asterisk represents the objective band. Blots represent three independent experiments. (F) Impairing MMP-9/TGM2/RSV-F complex inhibits RSV infection. […] (G) Proteolytic enhancement. MMP-9-cleaved TGM2 (TGM2-44) enhances protein disulfide isomerase (PDI) activity was measured using reduced DS-Cav1. mean ± SD, n = 3. (H) Truncation functional analysis. Viral titers (FFA) in HEp-2 cells expressing MMP-9, TGM2, or cleavage fragments (TGM2-44/41) post RSV infection (MOI = 1, 72 hpi). mean ± SD, n = 3. (I) Syncytium rescue. Syncytia area quantification in TGM2 truncation-expressing cells (ImageJ software). mean ± SD, n = 3. (J) Subcellular redistribution. Confocal microscopy of HEp-2 cells co-expressing TGM2 truncations (HA/FLAG-tagged) and RSV F (72 hpi). Scale bar: 10 µm. Images represent three biological replicates. (K) F protein expression. Fluorescence intensity quantification of RSV F in (J) (ImageJ software). mean ± SD, n = 3. (L) Fusion competence assay. Syncytium formation in HEK293T cells co-expressing TGM2 truncations and RSV F/F-C37S/C69S mutants (48 h). Scale bar: 10 µm. Images represent three biological replicates. (M) Mutant validation. RSV F expression levels in (L) were quantified by ImageJ software. mean ± SD, n = 3. The results are representatively shown with three random experiments. The error bars indicate the mean ± SD of three technical replicates (n = 3). Statistical analysis: one-way ANOVA with Dunnett’s post hoc test (B, F, G, H, I, K, M); unpaired two-tailed Student’s t-test (F, H, I, K, M). *P < 0.05, **P < 0.01, ***P < 0.001; ns, not significant.

[3] = tested on: RSV B18537; assay: Antiviral activity (FFA) against RSV B18537 in HEp-2 cells; assay type: cell-based; settings: human respiratory syncytial virus; HEp-2, RSV B18537, MOI = 0.1, 72 hpi; read-out: EC50
Text: (§4) Figure 1. Antiviral activity of metalloproteinase inhibitors against RSV in vitro. (A) Experimental workflow for RSV A2 infection and compound treatment. (B) High-throughput screening of TargetMol L1100 library (246 host protease inhibitors targeting 10 pathways: MMPs, caspases, proteasomes, apoptosis regulators, cysteine proteases, gamma-secretase, autophagy modulators, serine proteases, DPP-4, and beta-secretase) using concentration gradients (1, 5, 10 µmol/L). HEp-2 cells were pretreated with compounds for 1 hour prior to RSV A2 infection (MOI = 0.1). Plaque formation was quantified at 72 hours post-infection (hpi) and normalized to DMSO controls. […] (G) Target overlap analysis of four MMP-9-targeting inhibitors. (H) Viral titers in supernatants of HEp-2 cells transfected with MMP-specific siRNAs (24 h) followed by RSV A2 infection (MOI = 1, 72 h). mean ± SD, n = 3. The results are representatively shown with three random experiments. The error bars indicate the mean ± SD of three technical replicates (n = 3). Statistical significance was determined by one-way ANOVA with Dunnett’s post hoc test: *P < 0.05, ***P < 0.001; ns, not significant. […]
109 111813, MCE) and 0.1% DMSO vehicle. Primary hits (>50% CPE reduction + not
(§5) 110 overtly cytotoxic) underwent dose -response validation (0.00004 –10 μM) to generate
(§6) 111 EC50 curves (GraphPad Prism 8.0) .
(§7) 112 Evaluation of in vitro antiviral activity
(§8) 113 Compound inhibitor treatments: HEp-2 cells (1.3×10⁴/well) or HBEC (1.8×10⁴/well)
(§9) 114 were pretreated with test compounds for 1 h before RSV A2/B18537 infection
(§10) 115 (MOI=0.1 or 0.3). Viral inhibition was quantified at 72 hpi via FFA. Fixed cells (4%
(§11) 116 PFA) were permeabilized (0.3% Triton X-100), stained with anti-RSV-FITC
(§12) 118 Fluorescent foci were normalized to nuclear counts (ImageJ software) for EC 50
(§13) 119 determination via four-parameter logistic regression (GraphPad Prism 8.0). Data
(§14) 120 represent triplicate experiments. […]

[4] = tested on: RSV A2; assay: Antiviral activity (FFA) against RSV A2 in HEp-2 cells; assay type: cell-based; settings: human respiratory syncytial virus; HEp-2, RSV A2, MOI = 0.1, 72 hpi; read-out: EC50
Text: as §4, §5, §6, §7, §8, §9, §10, §11, §12, §13, §14

[5] = tested on: RSV B18537; assay: Antiviral activity (FFA) against RSV B18537 in HBEC; assay type: cell-based; settings: human respiratory syncytial virus; HBEC, RSV B18537, MOI = 0.3, 72 hpi; read-out: EC50
Text: as §4, §7, §8, §9, §10, §11, §12, §13, §14

[6] = tested on: RSV A2; assay: Antiviral activity (FFA) against RSV A2 in primary human bronchial epithelial cells (HBEC); assay type: cell-based; settings: human respiratory syncytial virus, Epithelial cell; HBEC, RSV A2, MOI = 0.3, 72 hpi; read-out: EC50
Text: as §4, §7, §8, §9, §10, §11, §12, §13, §14

[7] = Cell viability assay (CellTiter-Glo) in HEp-2 cells; assay type: cell-based; settings: human
Procedure: as §1, §2, §3

[8] = biological target: RSV F protein (DS-Cav1); assay: Biolayer interferometry, TGM2 binding to RSV F protein (DS-Cav1); parameters: species or system Respiratory syncytial virus; settings: BLI, biotinylated DS-Cav1 on SA biosensors
Procedure: Figure 7. MMP-9-mediated TGM2 cleavage potentiates RSV–host interaction. (A) Cytotoxicity profiling. Dose-response curves of TGM2 inhibitors (ZED-1227, Cystamine, Bacitracin, E64FC26, ML359) in HEp-2 cells (72 h treatment). Viability was assessed by CellTiter-Glo assay. Data normalized to untreated controls. mean ± SD, n = 3. (B) Antiviral efficacy. Viral inhibition (FFA) in RSV A2-infected HEp-2 cells treated with TGM2 inhibitors at threefold dilution gradients: ZED-1227 (60–10 µmol/L), Cystamine (200–22.2 µmol/L), Bacitracin (500–50 µmol/L), E64FC26 (0.2–0.05 µmol/L), and ML359 (10–1.1 µmol/L). DMSO as vehicle control. mean ± SD, n = 3. (C) TGM2–F protein interaction. […] BLI quantification of TGM2–DS-Cav1 (RSV F prefusion conformation) interaction. […] MMP-9-cleaved TGM2 (TGM2-44) enhances protein disulfide isomerase (PDI) activity was measured using reduced DS-Cav1. mean ± SD, n = 3. […] Syncytia area quantification in TGM2 truncation-expressing cells (ImageJ software). mean ± SD, n = 3. […] Fluorescence intensity quantification of RSV F in (J) (ImageJ software). mean ± SD, n = 3. […] RSV F expression levels in (L) were quantified by ImageJ software. mean ± SD, n = 3. […]
271 TGM2) were quantified using a Sartorius Octet R4 system. […]
275 equilibration. MMP-9 (MCE) binding was assessed across two concentration ranges: […]
281 (Sartorius) at 20 µg/mL. TGM2 binding was evaluated across 0 –100 µM (7 […]

## CCOC(=O)C1(CCOc2ccccc2)CCN(Cc2ccc(O)c(Cl)c2)CC1 [ML359]
[1]
  CC50: 26100 nM
[2]
  inhibition of RSV replication (antiviral efficacy): strong antiviral efficacy

## Cc1cnc(N2CC3(CCOCC3)C2)c(C(=O)Nc2ccc(C(=O)N3CCc4cc(C(=O)Nc5c(C)cccc5F)sc4-c4ccccc43)cc2)c1 [PC786]
[3]
  EC50: 32.9 nM
[4]
  EC50: 2.6 nM
[5]
  EC50: 47.1 nM
[6]
  EC50: 45.5 nM

## CCC(CC)CNC(=O)Cn1cccc(NC(=O)[C@H](CC/C=C/C(=O)OC)NC(=O)c2cncn2C)c1=O [ZED-1227]
[7]
  CC50 at 72 h: 78700 nM
[2]
  inhibition of RSV replication (antiviral efficacy): did not inhibit RSV replication

## Bacitracin
[2]
  inhibition of RSV replication (antiviral efficacy): strong antiviral efficacy

## TGM2: recombinant transglutaminase 2 protein used in BLI
[8]
  Kd: 6310 nM
